Measured values as given in ChEMBL document CHEMBL1131542, “A potent dipeptide inhibitor of dipeptidyl peptidase IV” (Bioorg Med Chem Lett, 1998).
Square brackets hold non-standard residues; d marks the D form. Peptide text beside a SMILES is read from it. Tic = O=C(O)[C@@H]1Cc2ccccc2CN1

molecular target: Dipeptidyl peptidase 4 (Homo sapiens, UniProt P27487); experiment: Percent inhibition against Dipeptidyl peptidase IV (DPP IV) at a concentration of 1 uM
Sequence (P27487 whole entry, looked up): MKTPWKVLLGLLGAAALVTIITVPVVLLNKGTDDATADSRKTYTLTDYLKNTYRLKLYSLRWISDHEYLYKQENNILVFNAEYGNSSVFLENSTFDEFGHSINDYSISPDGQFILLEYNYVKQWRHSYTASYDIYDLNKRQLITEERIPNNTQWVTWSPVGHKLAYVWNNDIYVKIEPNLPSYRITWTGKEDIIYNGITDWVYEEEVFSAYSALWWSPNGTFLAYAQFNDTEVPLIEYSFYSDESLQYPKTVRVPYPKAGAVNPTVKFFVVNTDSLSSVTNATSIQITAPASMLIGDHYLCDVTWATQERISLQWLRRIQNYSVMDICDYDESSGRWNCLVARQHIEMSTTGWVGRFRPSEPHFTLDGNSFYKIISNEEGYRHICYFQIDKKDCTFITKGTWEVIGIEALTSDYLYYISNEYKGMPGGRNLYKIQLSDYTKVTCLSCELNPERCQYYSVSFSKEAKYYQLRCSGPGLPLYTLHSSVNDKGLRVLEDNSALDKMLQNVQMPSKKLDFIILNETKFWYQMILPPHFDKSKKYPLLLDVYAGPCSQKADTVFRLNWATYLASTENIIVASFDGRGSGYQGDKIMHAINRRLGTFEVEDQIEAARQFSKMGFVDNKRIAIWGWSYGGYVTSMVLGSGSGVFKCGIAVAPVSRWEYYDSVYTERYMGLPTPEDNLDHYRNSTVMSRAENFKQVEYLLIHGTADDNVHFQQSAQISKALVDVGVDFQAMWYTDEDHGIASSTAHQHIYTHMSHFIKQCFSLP

Q: How did the inhibition turn out when CC[C@H](C)[C@H](NC(=O)[C@H](Cc1c[nH]cn1)NC(=O)CNC(=O)[C@H](CCC(=O)O)NC(=O)[C@H](CCC(N)=O)NC(=O)[C@H](CC(=O)O)NC(=O)[C@H](CC(N)=O)NC(=O)[C@H](CCCN=C(N)N)NC(=O)[C@H](C)NC(=O)[C@@H]1Cc2ccccc2CN1C(=O)[C@@H](N)CCCN=C(N)N)C(=O)N[C@@H](CC(C)C)C(=O)N[C@@H](CCCCN)C(=O)N[C@@H](CCSC)C(=O)N[C@@H](Cc1ccccc1)C(=O)N1CCC[C@H]1C(=O)N[C@@H](CO)C(=O)N[C@H](C(=O)N[C@@H](Cc1c[nH]c2ccccc12)C(=O)N[C@@H](Cc1ccc(O)cc1)C(=O)N[C@H](C(=O)O)C(C)C)[C@@H](C)O (H-R[Tic]ARNDQEGHILKMFPSTWYV-OH) was run?
A: The inhibition was 10%.

Q: With CC[C@H](C)[C@H](NC(=O)[C@H](Cc1c[nH]cn1)NC(=O)CNC(=O)[C@H](CCC(=O)O)NC(=O)[C@H](CCC(N)=O)NC(=O)[C@H](CC(=O)O)NC(=O)[C@H](CC(N)=O)NC(=O)[C@H](CCCN=C(N)N)NC(=O)[C@H](C)NC(=O)[C@@H]1Cc2ccccc2CN1C(=O)[C@@H](N)[C@@H](C)O)C(=O)N[C@@H](CC(C)C)C(=O)N[C@@H](CCCCN)C(=O)N[C@@H](CCSC)C(=O)N[C@@H](Cc1ccccc1)C(=O)N1CCC[C@H]1C(=O)N[C@@H](CO)C(=O)N[C@H](C(=O)N[C@@H](Cc1c[nH]c2ccccc12)C(=O)N[C@@H](Cc1ccc(O)cc1)C(=O)N[C@H](C(=O)O)C(C)C)[C@@H](C)O (H-T[Tic]ARNDQEGHILKMFPSTWYV-OH) as the compound, how does the inhibition read?
A: The inhibition was 17%.

Q: For CC[C@H](C)[C@H](N)C(=O)N1Cc2ccccc2C[C@H]1C(=O)N[C@@H](C)C(=O)N[C@@H](CCCN=C(N)N)C(=O)N[C@@H](CC(N)=O)C(=O)N[C@@H](CC(=O)O)C(=O)N[C@@H](CCC(N)=O)C(=O)N[C@@H](CCC(=O)O)C(=O)NCC(=O)N[C@@H](Cc1c[nH]cn1)C(=O)N[C@H](C(=O)N[C@@H](CC(C)C)C(=O)N[C@@H](CCCCN)C(=O)N[C@@H](CCSC)C(=O)N[C@@H](Cc1ccccc1)C(=O)N1CCC[C@H]1C(=O)N[C@@H](CO)C(=O)N[C@H](C(=O)N[C@@H](Cc1c[nH]c2ccccc12)C(=O)N[C@@H](Cc1ccc(O)cc1)C(=O)N[C@H](C(=O)O)C(C)C)[C@@H](C)O)[C@@H](C)CC (H-I[Tic]ARNDQEGHILKMFPSTWYV-OH), which inhibition is on record?
A: Its inhibition is 6%.

Q: CC[C@H](C)[C@H](NC(=O)[C@H](Cc1c[nH]cn1)NC(=O)CNC(=O)[C@H](CCC(=O)O)NC(=O)[C@H](CCC(N)=O)NC(=O)[C@H](CC(=O)O)NC(=O)[C@H](CC(N)=O)NC(=O)[C@H](CCCN=C(N)N)NC(=O)[C@H](C)NC(=O)[C@@H]1Cc2ccccc2CN1C(=O)[C@@H](N)CC(N)=O)C(=O)N[C@@H](CC(C)C)C(=O)N[C@@H](CCCCN)C(=O)N[C@@H](CCSC)C(=O)N[C@@H](Cc1ccccc1)C(=O)N1CCC[C@H]1C(=O)N[C@@H](CO)C(=O)N[C@H](C(=O)N[C@@H](Cc1c[nH]c2ccccc12)C(=O)N[C@@H](Cc1ccc(O)cc1)C(=O)N[C@H](C(=O)O)C(C)C)[C@@H](C)O (H-N[Tic]ARNDQEGHILKMFPSTWYV-OH) was tested. Which inhibition did it give?
A: The inhibition was 9%.

Q: CC[C@H](C)[C@H](NC(=O)[C@H](Cc1c[nH]cn1)NC(=O)CNC(=O)[C@H](CCC(=O)O)NC(=O)[C@H](CCC(N)=O)NC(=O)[C@H](CC(=O)O)NC(=O)[C@H](CC(N)=O)NC(=O)[C@H](CCCN=C(N)N)NC(=O)[C@H](C)NC(=O)[C@@H]1Cc2ccccc2CN1C(=O)[C@@H](N)CS)C(=O)N[C@@H](CC(C)C)C(=O)N[C@@H](CCCCN)C(=O)N[C@@H](CCSC)C(=O)N[C@@H](Cc1ccccc1)C(=O)N1CCC[C@H]1C(=O)N[C@@H](CO)C(=O)N[C@H](C(=O)N[C@@H](Cc1c[nH]c2ccccc12)C(=O)N[C@@H](Cc1ccc(O)cc1)C(=O)N[C@H](C(=O)O)C(C)C)[C@@H](C)O (H-C[Tic]ARNDQEGHILKMFPSTWYV-OH) was tested. Which inhibition did it give?
A: Its inhibition is 9%.

Q: How did the inhibition turn out when CC[C@H](C)[C@H](NC(=O)[C@H](Cc1c[nH]cn1)NC(=O)CNC(=O)[C@H](CCC(=O)O)NC(=O)[C@H](CCC(N)=O)NC(=O)[C@H](CC(=O)O)NC(=O)[C@H](CC(N)=O)NC(=O)[C@H](CCCN=C(N)N)NC(=O)[C@H](C)NC(=O)[C@@H]1Cc2ccccc2CN1C(=O)[C@@H](N)CCC(=O)O)C(=O)N[C@@H](CC(C)C)C(=O)N[C@@H](CCCCN)C(=O)N[C@@H](CCSC)C(=O)N[C@@H](Cc1ccccc1)C(=O)N1CCC[C@H]1C(=O)N[C@@H](CO)C(=O)N[C@H](C(=O)N[C@@H](Cc1c[nH]c2ccccc12)C(=O)N[C@@H](Cc1ccc(O)cc1)C(=O)N[C@H](C(=O)O)C(C)C)[C@@H](C)O (H-E[Tic]ARNDQEGHILKMFPSTWYV-OH) was run?
A: The inhibition was 4%.

Q: Which inhibition does the source give for CC[C@H](C)[C@H](NC(=O)[C@H](Cc1c[nH]cn1)NC(=O)CNC(=O)[C@H](CCC(=O)O)NC(=O)[C@H](CCC(N)=O)NC(=O)[C@H](CC(=O)O)NC(=O)[C@H](CC(N)=O)NC(=O)[C@H](CCCN=C(N)N)NC(=O)[C@H](C)NC(=O)[C@@H]1Cc2ccccc2CN1C(=O)[C@@H](N)CC(C)C)C(=O)N[C@@H](CC(C)C)C(=O)N[C@@H](CCCCN)C(=O)N[C@@H](CCSC)C(=O)N[C@@H](Cc1ccccc1)C(=O)N1CCC[C@H]1C(=O)N[C@@H](CO)C(=O)N[C@H](C(=O)N[C@@H](Cc1c[nH]c2ccccc12)C(=O)N[C@@H](Cc1ccc(O)cc1)C(=O)N[C@H](C(=O)O)C(C)C)[C@@H](C)O (H-L[Tic]ARNDQEGHILKMFPSTWYV-OH) here?
A: The inhibition was 7%.

Q: How did the inhibition turn out when CC[C@H](C)[C@H](NC(=O)[C@H](Cc1c[nH]cn1)NC(=O)CNC(=O)[C@H](CCC(=O)O)NC(=O)[C@H](CCC(N)=O)NC(=O)[C@H](CC(=O)O)NC(=O)[C@H](CC(N)=O)NC(=O)[C@H](CCCN=C(N)N)NC(=O)[C@H](C)NC(=O)[C@@H]1Cc2ccccc2CN1C(=O)[C@@H](N)CC(=O)O)C(=O)N[C@@H](CC(C)C)C(=O)N[C@@H](CCCCN)C(=O)N[C@@H](CCSC)C(=O)N[C@@H](Cc1ccccc1)C(=O)N1CCC[C@H]1C(=O)N[C@@H](CO)C(=O)N[C@H](C(=O)N[C@@H](Cc1c[nH]c2ccccc12)C(=O)N[C@@H](Cc1ccc(O)cc1)C(=O)N[C@H](C(=O)O)C(C)C)[C@@H](C)O (H-D[Tic]ARNDQEGHILKMFPSTWYV-OH) was run?
A: Its inhibition is 8%.

Q: Which inhibition does the source give for CC[C@H](C)[C@H](NC(=O)[C@H](Cc1c[nH]cn1)NC(=O)CNC(=O)[C@H](CCC(=O)O)NC(=O)[C@H](CCC(N)=O)NC(=O)[C@H](CC(=O)O)NC(=O)[C@H](CC(N)=O)NC(=O)[C@H](CCCN=C(N)N)NC(=O)[C@H](C)NC(=O)[C@@H]1Cc2ccccc2CN1C(=O)[C@@H](N)CCCCN)C(=O)N[C@@H](CC(C)C)C(=O)N[C@@H](CCCCN)C(=O)N[C@@H](CCSC)C(=O)N[C@@H](Cc1ccccc1)C(=O)N1CCC[C@H]1C(=O)N[C@@H](CO)C(=O)N[C@H](C(=O)N[C@@H](Cc1c[nH]c2ccccc12)C(=O)N[C@@H](Cc1ccc(O)cc1)C(=O)N[C@H](C(=O)O)C(C)C)[C@@H](C)O (H-K[Tic]ARNDQEGHILKMFPSTWYV-OH) here?
A: Its inhibition is 7%.

Q: With CC[C@H](C)[C@H](NC(=O)[C@H](Cc1c[nH]cn1)NC(=O)CNC(=O)[C@H](CCC(=O)O)NC(=O)[C@H](CCC(N)=O)NC(=O)[C@H](CC(=O)O)NC(=O)[C@H](CC(N)=O)NC(=O)[C@H](CCCN=C(N)N)NC(=O)[C@H](C)NC(=O)[C@@H]1Cc2ccccc2CN1C(=O)[C@@H](N)C(C)C)C(=O)N[C@@H](CC(C)C)C(=O)N[C@@H](CCCCN)C(=O)N[C@@H](CCSC)C(=O)N[C@@H](Cc1ccccc1)C(=O)N1CCC[C@H]1C(=O)N[C@@H](CO)C(=O)N[C@H](C(=O)N[C@@H](Cc1c[nH]c2ccccc12)C(=O)N[C@@H](Cc1ccc(O)cc1)C(=O)N[C@H](C(=O)O)C(C)C)[C@@H](C)O (H-V[Tic]ARNDQEGHILKMFPSTWYV-OH) as the compound, how does the inhibition read?
A: The inhibition was 3%.

Q: CC[C@H](C)[C@H](NC(=O)[C@H](Cc1c[nH]cn1)NC(=O)CNC(=O)[C@H](CCC(=O)O)NC(=O)[C@H](CCC(N)=O)NC(=O)[C@H](CC(=O)O)NC(=O)[C@H](CC(N)=O)NC(=O)[C@H](CCCN=C(N)N)NC(=O)[C@H](C)NC(=O)[C@@H]1Cc2ccccc2CN1C(=O)[C@@H](N)CCSC)C(=O)N[C@@H](CC(C)C)C(=O)N[C@@H](CCCCN)C(=O)N[C@@H](CCSC)C(=O)N[C@@H](Cc1ccccc1)C(=O)N1CCC[C@H]1C(=O)N[C@@H](CO)C(=O)N[C@H](C(=O)N[C@@H](Cc1c[nH]c2ccccc12)C(=O)N[C@@H](Cc1ccc(O)cc1)C(=O)N[C@H](C(=O)O)C(C)C)[C@@H](C)O (H-M[Tic]ARNDQEGHILKMFPSTWYV-OH) was tested. Which inhibition did it give?
A: The inhibition was 6%.

Q: Which inhibition does the source give for CC[C@H](C)[C@H](NC(=O)[C@H](Cc1c[nH]cn1)NC(=O)CNC(=O)[C@H](CCC(=O)O)NC(=O)[C@H](CCC(N)=O)NC(=O)[C@H](CC(=O)O)NC(=O)[C@H](CC(N)=O)NC(=O)[C@H](CCCN=C(N)N)NC(=O)[C@H](C)NC(=O)[C@@H]1Cc2ccccc2CN1C(=O)[C@H](C)N)C(=O)N[C@@H](CC(C)C)C(=O)N[C@@H](CCCCN)C(=O)N[C@@H](CCSC)C(=O)N[C@@H](Cc1ccccc1)C(=O)N1CCC[C@H]1C(=O)N[C@@H](CO)C(=O)N[C@H](C(=O)N[C@@H](Cc1c[nH]c2ccccc12)C(=O)N[C@@H](Cc1ccc(O)cc1)C(=O)N[C@H](C(=O)O)C(C)C)[C@@H](C)O (H-A[Tic]ARNDQEGHILKMFPSTWYV-OH) here?
A: The inhibition was 1%.

Q: Which inhibition does the source give for CC[C@H](C)[C@H](NC(=O)[C@H](Cc1c[nH]cn1)NC(=O)CNC(=O)[C@H](CCC(=O)O)NC(=O)[C@H](CCC(N)=O)NC(=O)[C@H](CC(=O)O)NC(=O)[C@H](CC(N)=O)NC(=O)[C@H](CCCN=C(N)N)NC(=O)[C@H](C)NC(=O)[C@@H]1Cc2ccccc2CN1C(=O)[C@@H](N)Cc1c[nH]cn1)C(=O)N[C@@H](CC(C)C)C(=O)N[C@@H](CCCCN)C(=O)N[C@@H](CCSC)C(=O)N[C@@H](Cc1ccccc1)C(=O)N1CCC[C@H]1C(=O)N[C@@H](CO)C(=O)N[C@H](C(=O)N[C@@H](Cc1c[nH]c2ccccc12)C(=O)N[C@@H](Cc1ccc(O)cc1)C(=O)N[C@H](C(=O)O)C(C)C)[C@@H](C)O (H-H[Tic]ARNDQEGHILKMFPSTWYV-OH) here?
A: Its inhibition is 7%.

Q: CC[C@H](C)[C@H](NC(=O)[C@H](Cc1c[nH]cn1)NC(=O)CNC(=O)[C@H](CCC(=O)O)NC(=O)[C@H](CCC(N)=O)NC(=O)[C@H](CC(=O)O)NC(=O)[C@H](CC(N)=O)NC(=O)[C@H](CCCN=C(N)N)NC(=O)[C@H](C)NC(=O)[C@@H]1Cc2ccccc2CN1C(=O)[C@@H](N)CO)C(=O)N[C@@H](CC(C)C)C(=O)N[C@@H](CCCCN)C(=O)N[C@@H](CCSC)C(=O)N[C@@H](Cc1ccccc1)C(=O)N1CCC[C@H]1C(=O)N[C@@H](CO)C(=O)N[C@H](C(=O)N[C@@H](Cc1c[nH]c2ccccc12)C(=O)N[C@@H](Cc1ccc(O)cc1)C(=O)N[C@H](C(=O)O)C(C)C)[C@@H](C)O (H-S[Tic]ARNDQEGHILKMFPSTWYV-OH) was tested. Which inhibition did it give?
A: Its inhibition is 10%.
